Experimental data as given in patent US20240226107A1, “UBIQUITIN-SPECIFIC PROTEASE 1 (USP1) INHIBITOR” (SIMCERE ZAIMING PHARMACEUTICAL CO., LTD., priority 2021, published 2024).

Columns and labels:
[1] = molecular target: USP1 (Recombinant Human His6-USP1/His6-UAF1 Complex Protein) (Homo sapiens (Human), UniProt O94782); assay: In vitro activity assay for USP1 (Ub-CHOP2-Reporter deubiquitination assay); format: biochemical; conditions: 0.5 h incubation at room temperature, read-out: In vitro inhibitory activity of USP1 IC50
Chain of USP1 (Recombinant Human His6-USP1/His6-UAF1 Complex Protein) (O94782 whole entry): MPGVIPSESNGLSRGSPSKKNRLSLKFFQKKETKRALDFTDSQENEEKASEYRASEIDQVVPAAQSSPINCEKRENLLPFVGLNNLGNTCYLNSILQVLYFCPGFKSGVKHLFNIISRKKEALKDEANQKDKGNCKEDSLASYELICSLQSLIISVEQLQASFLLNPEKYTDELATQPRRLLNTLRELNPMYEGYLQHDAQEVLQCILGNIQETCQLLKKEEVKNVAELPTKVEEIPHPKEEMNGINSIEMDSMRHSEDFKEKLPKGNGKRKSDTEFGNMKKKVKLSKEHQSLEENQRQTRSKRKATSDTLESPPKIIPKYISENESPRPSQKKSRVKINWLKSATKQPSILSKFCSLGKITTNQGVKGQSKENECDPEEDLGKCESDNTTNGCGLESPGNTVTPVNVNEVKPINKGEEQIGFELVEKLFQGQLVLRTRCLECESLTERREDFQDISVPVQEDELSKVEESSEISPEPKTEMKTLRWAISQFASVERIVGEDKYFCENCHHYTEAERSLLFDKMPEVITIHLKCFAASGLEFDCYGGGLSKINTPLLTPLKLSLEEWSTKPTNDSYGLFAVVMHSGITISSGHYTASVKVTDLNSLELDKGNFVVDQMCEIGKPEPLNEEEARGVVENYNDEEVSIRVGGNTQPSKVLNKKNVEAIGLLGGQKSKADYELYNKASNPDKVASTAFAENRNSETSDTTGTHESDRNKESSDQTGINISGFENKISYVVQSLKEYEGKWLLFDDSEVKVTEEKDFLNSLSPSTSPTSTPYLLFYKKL
Chain of USP1 (Recombinant Human His6-USP1/His6-UAF1 Complex Protein) (Q8TAF3 whole entry partner): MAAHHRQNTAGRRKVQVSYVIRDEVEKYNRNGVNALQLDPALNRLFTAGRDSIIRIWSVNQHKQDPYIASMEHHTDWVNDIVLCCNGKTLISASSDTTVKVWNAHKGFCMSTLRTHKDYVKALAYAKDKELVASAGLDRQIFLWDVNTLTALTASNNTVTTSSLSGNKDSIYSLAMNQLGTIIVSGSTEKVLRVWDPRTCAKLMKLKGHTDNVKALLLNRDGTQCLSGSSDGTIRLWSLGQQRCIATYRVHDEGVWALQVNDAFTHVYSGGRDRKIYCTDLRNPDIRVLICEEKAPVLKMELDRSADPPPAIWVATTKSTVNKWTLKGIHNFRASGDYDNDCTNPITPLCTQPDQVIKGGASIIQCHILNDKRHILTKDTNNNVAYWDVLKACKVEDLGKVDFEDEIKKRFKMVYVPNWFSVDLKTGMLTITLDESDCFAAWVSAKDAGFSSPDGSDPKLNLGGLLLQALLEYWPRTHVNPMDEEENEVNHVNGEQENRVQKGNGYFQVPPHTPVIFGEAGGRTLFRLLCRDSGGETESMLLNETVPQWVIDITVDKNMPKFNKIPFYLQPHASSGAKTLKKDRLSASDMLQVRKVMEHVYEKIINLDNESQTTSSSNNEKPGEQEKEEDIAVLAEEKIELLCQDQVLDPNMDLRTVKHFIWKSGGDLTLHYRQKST
Method: The assay kit (Ub-CHOP2-Reporter Deubiquitination Assay Kit) was purchased from Lifesensors, with Cat. No. of PR1101. The assay kit was subpackaged and stored at −80° C.
Each compound to be tested was dissolved with DMSO to 10 mM. The compound and pure DMSO (with a total volume of 50 nL) were loaded to each well of the 384-well plate by using an ECHO instrument to obtain gradient-diluted sample concentrations at different ratios. The enzyme was diluted with a freshly prepared reaction solution (20 mM Tris-HCl (pH 8.0), 2 mM CaCl2, 2 mM β-mercaptoethanol, 0.05% CHAPS, and ddH2O). To each well, 5 μL of diluted enzyme reaction solution was added, then the plate was centrifuged and oscillated to mix the enzyme and the compound, and the mixture was centrifuged again and placed on ice. The kit reporter system and the substrate were diluted with the reaction solution, then 5 μL of diluted liquid was added to each well, and mixed by centrifugation. The mixture was incubated at room temperature for 0.5 h. […] The inhibitory activity (IC50 values) of the compound on enzyme activity was calculated by using a four-parameter Logistic Model. […] A, B, C, and D are four parameters.

[2] = tested on: MDA-MB-436 cells;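 also: MDA-MB-436 proliferation over 7 days with compound, viability read as ATP luminescence (CellTiter-Glo), inhibition relative to DMSO-only wells, day 0 signal as background, GI50 from four-parameter fit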

SMILES | IC50 [1] [nM] | GI50 [2] [nM]
COc1ncnc(C2CC2)c1-c1ncc2c(n1)N(Cc1c(F)cc(-c3nc(C(F)(F)F)cn3C)cc1F)CCO2 [Compound 10, 2-(4-cyclopropyl-6-methoxypyrimidin-5-yl)-8-(2,6-difluoro-4-(1-methyl-4-(trifluoromethyl)-1H-imidazol-2-yl)benzyl)-7,8-dihydro-6H-pyrimido[5,4-b][1,4]oxazine] | 106 | 507
COc1ncnc(C2CC2)c1-c1ncc2c(n1)N(Cc1ccc(-c3nc(C(F)(F)F)cn3C)cc1)C1CCCN1C2=O (stereo not shown) [Compound 42, 2-(4-cyclopropyl-6-methoxypyrimidin-5-yl)-10-(4-(1-methyl-4-(trifluoromethyl)-1H-imidazol-2-yl)benzyl)-8,9,9a,10-tetrahydropyrimido[4,5-d]pyrrolo[1,2-a]pyrimidin-5(7H)-one] | 86.6 | 474
COc1ncnc(C2CC2)c1-c1ncc2c(n1)N(Cc1ccc(-n3nc(C(F)(F)F)cc3C)c(F)c1)CC(=O)N2C [Compound 44, 2-(4-cyclopropyl-6-methoxypyrimidin-5-yl)-5-methyl-8-(3-fluoro-4-(5-methyl-3-(trifluoromethyl)-1H-pyrazol-1-yl)benzyl)-7,8-dihydropteridin-6(5H)-one] | 13.9 | 27.5
Cn1cc(C(F)(F)F)nc1-c1ccc(CN2C(=O)OC(C)(C)c3cnc(-c4c(OC(F)F)ncnc4C4CC4)nc32)cc1F [Compound 57, 7-(4-cyclopropyl-6-(difluoromethoxy)pyrimidin-5-yl)-1-(3-fluoro-4-(1-methyl-4-(trifluoromethyl)-1H-imidazol-2-yl)benzyl)-4,4-dimethyl-1,4-dihydro-2H-pyrimido[4,5-d][1,3]oxazin-2-one] | 8.1 | 19.8
COc1ncnc(C2CC2)c1-c1ncc2c(n1)N(Cc1ccc(-c3nc(C(F)(F)F)cn3C)c(F)c1)C(=O)OC2(C)CO (stereo not shown) [Compound 58, 7-(4-cyclopropyl-6-methoxypyrimidin-5-yl)-1-(3-fluoro-4-(1-methyl-4-(trifluoromethyl)-1H-imidazol-2-yl)benzyl)-4-(hydroxymethyl)-4-methyl-1,4-dihydro-2H-pyrimido[4,5-d][1,3]oxazin-2-one] | 36.9 | 81.8
COc1ncnc(C2CC2)c1-c1ncc2nc(C)c(=O)n(Cc3ccc(-c4nc(C(F)(F)F)cn4C)cc3)c2n1 [Compound 61, 2-(4-cyclopropyl-6-methoxypyrimidin-5-yl)-6-methyl-8-(4-(1-methyl-4-(trifluoromethyl)-1H-imidazol-2-yl)benzyl)pteridin-7(8H)-one] | 36.3 | 81.4
CCn1cc(C(F)(F)F)nc1-c1ccc(CN2CC(=O)N(C)c3cnc(-c4c(OC)ncnc4C4CC4)nc32)cc1F [Compound 68, 2-(4-cyclopropyl-6-methoxypyrimidin-5-yl)-5-methyl-8-(3-fluoro-4-(1-ethyl-4-(trifluoromethyl)-1H-imidazol-2-yl)benzyl)-7,8-dihydropteridin-6(5H)-one] | 12.1 | 27
COc1ncnc(C2CC2)c1-c1ncc2c(n1)N(Cc1ccc(-c3nc(C(F)(F)F)cn3C)c(F)c1)CC(=O)N2C1CC1 [Compound 71, 2-(4-cyclopropyl-6-methoxypyrimidin-5-yl)-8-(3-fluoro-4-(1-methyl-4-(trifluoromethyl)-1H-imidazol-2-yl)benzyl)-5-cyclopropyl-7,8-dihydropteridin-6(5H)-one] | 71.6 | 74.1
COc1ncnc(C2CC2)c1-c1ncc2c(n1)N(Cc1ccc(-c3nc(C(F)(F)F)cn3C3CC3)c(F)c1)CC(=O)N2C1CC1 [Compound 77, 2-(4-cyclopropyl-6-methoxypyrimidin-5-yl)-8-(3-fluoro-4-(1-cyclopropyl-4-(trifluoromethyl)-1H-imidazol-2-yl)benzyl)-5-cyclopropyl-7,8-dihydropteridin-6(5H)-one] | 18.4 | 48.7

Second part, the compound after the results:

IC50 [1] [nM] | GI50 [2] [nM] | SMILES
34 | 20.1 | COc1ncnc(C2CC2)c1-c1ncc2c(n1)N(Cc1ccc(-c3nc(C(F)(F)F)cn3C)cc1)CC(C)O2 (stereo not shown) [Compound 15, 2-(4-cyclopropyl-6-methoxypyrimidin-5-yl)-6-methyl-8-(4-(1-methyl-4-(trifluoromethyl)-1H-imidazol-2-yl)benzyl)-7,8-dihydro-6H-pyrimido[5,4-b][1,4]oxazine]
16.7 | 97.5 | COc1ncnc(C2CC2)c1-c1ncc2c(n1)N(Cc1ccc(-c3nc(C(F)(F)F)cn3C)cc1)C(=O)C(C)O2 (stereo not shown) [Compound 21, 2-(4-cyclopropyl-6-methoxypyrimidin-5-yl)-6-methyl-8-(4-(1-methyl-4-(trifluoromethyl)-1H-imidazol-2-yl)benzyl)-6H-pyrimido[5,4-b][1,4]oxazin-7(8H)-one]
21.9 | 32.5 | COc1ncnc(C2CC2)c1-c1ncc2c(n1)N(Cc1ccc(-c3nc(C(F)(F)F)cn3C)cc1)C(C)CO2 (stereo not shown) [Compound 23, 2-(4-cyclopropyl-6-methoxypyrimidin-5-yl)-7-methyl-8-(4-(1-methyl-4-(trifluoromethyl)-1H-imidazol-2-yl)benzyl)-7,8-dihydro-6H-pyrimido[5,4-b][1,4]oxazine]
27.2 | 84.8 | COc1ncnc(C2CC2)c1-c1ncc2c(n1)N(Cc1ccc(-c3nc(C(F)(F)F)cn3C)cc1)CC(=O)N2CC(F)(F)F [Compound 25, 2-(4-cyclopropyl-6-methoxypyrimidin-5-yl)-5-(2,2,2-trifluoroethyl)-8-(4-(1-methyl-4-(trifluoromethyl)-1H-imidazol-2-yl)benzyl)-7,8-dihydropteridin-6(5H)-one]
20 | 24.4 | COc1ncnc(C2CC2)c1-c1ncc2c(n1)N(Cc1ccc(-c3nc(C(F)(F)F)cn3C)cc1)C(=O)N(C)C2 [Compound 29, 7-(4-cyclopropyl-6-methoxypyrimidin-5-yl)-3-methyl-1-(4-(1-methyl-4-(trifluoromethyl)-1H-imidazol-2-yl)benzyl)-3,4-dihydropyrimido[4,5-d]pyrimidin-2(1H)-one]
18.9 | 39.6 | CCN1C(=O)CN(Cc2ccc(-c3nc(C(F)(F)F)cn3CC)cc2)c2nc(-c3c(OC)ncnc3C3CC3)ncc21 [Compound 34, 2-(4-cyclopropyl-6-methoxypyrimidin-5-yl)-5-ethyl-8-(4-(1-ethyl-4-(trifluoromethyl)-1H-imidazol-2-yl)benzyl)-7,8-dihydropteridin-6(5H)-one]
69.5 | 364 | COc1ncnc(C2CC2)c1-c1ncc2c(=O)n(C)c(=O)n(Cc3ccc(-c4nc(C(F)(F)F)cn4C)cc3)c2n1 [Compound 35, 7-(4-cyclopropyl-6-methoxypyrimidin-5-yl)-3-methyl-1-(4-(1-methyl-4-(trifluoromethyl)-1H-imidazol-2-yl)benzyl)pyrimido[4,5-d]pyrimidine-2,4(1H,3H)-dione]
82.7 | 546 | COc1ncnc(C2CC2)c1-c1ncc2c(n1)N(Cc1ccc(-c3nc(C(F)(F)F)cn3C)cc1)CN(C)C2=O [Compound 36, 7-(4-cyclopropyl-6-methoxypyrimidin-5-yl)-3-methyl-1-(4-(1-methyl-4-(trifluoromethyl)-1H-imidazol-2-yl)benzyl)-2,3-dihydropyrimido[4,5-d]pyrimidin-4(1H)-one]
9.8 | 12.3 | COc1ncnc(C2CC2)c1-c1ncc2c(n1)N(Cc1cc(F)c(-c3nc(C(F)(F)F)cn3C)c(F)c1)CCO2 [Compound 62]
11.3 | 24.5 | COc1ncnc(C2CC2)c1-c1ncc2c(n1)N(Cc1cc(F)c(-c3nc(C(F)(F)F)cn3C)cc1F)CCO2 [Compound 63]
28.5 | 26.8 | COc1ncnc(C2CC2)c1-c1ncc2c(n1)N(Cc1ccc(-c3nc(C(F)(F)F)cn3C)c(F)c1)CC(=O)N2C [Compound 65, 2-(4-cyclopropyl-6-methoxypyrimidin-5-yl)-5-methyl-8-(3-fluoro-4-(1-methyl-4-(trifluoromethyl)-1H-imidazol-2-yl)benzyl)-7,8-dihydropteridin-6(5H)-one]
16.8 | 17.3 | COc1ncnc(C2CC2)c1-c1ncc2c(n1)N(Cc1ccc(-c3nc(C(F)(F)F)cn3C(C)C)c(F)c1)CC(=O)N2C [Compound 67, 2-(4-cyclopropyl-6-methoxypyrimidin-5-yl)-5-methyl-8-(3-fluoro-4-(1-isopropyl-4-(trifluoromethyl)-1H-imidazol-2-yl)benzyl)-7,8-dihydropteridin-6(5H)-one]
45.2 | 48 | CCn1cc(C(F)(F)F)nc1-c1ccc(CN2CC(=O)N(C3CC3)c3cnc(-c4c(OC)ncnc4C4CC4)nc32)cc1F [Compound 73, 2-(4-cyclopropyl-6-methoxypyrimidin-5-yl)-8-(3-fluoro-4-(1-ethyl-4-(trifluoromethyl)-1H-imidazol-2-yl)benzyl)-5-cyclopropyl-7,8-dihydropteridin-6(5H)-one]
96 | 53.1 | COc1ncnc(C2CC2)c1-c1ncc2c(n1)N(Cc1ccc(-c3nc(C(F)(F)F)cn3C)cc1)CC(=O)N2C(C)C [Compound 78, 2-(4-cyclopropyl-6-methoxypyrimidin-5-yl)-8-(4-(1-methyl-4-(trifluoromethyl)-1H-imidazol-2-yl)benzyl)-5-isopropyl-7,8-dihydropteridin-6(5H)-one]
